Measured values: ChEMBL document CHEMBL1201862, “PubChem BioAssay data set” (2004)
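Compound exposure: 48 hours, 5 concentrations, 96-well plates. Here, GI50 denotes the concentration required for 50% inhibition of growth.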 Activity calls are given as the source filed them. Rule as the data show it: active = GI50 up to about 1.1 µM and inactive = higher.

Experiments:
Assay in all cases: NCI tumour cell line growth inhibition, 48 h
OVCAR-3 = tested on: OVCAR-3
NCI-H522 = tested on: NCI-H522
HCT-116 = tested on: HCT-116
NCI-H226 = tested on: NCI-H226
CAKI-1 = tested on: CAKI-1
XF498 = tested on: XF498
SF-268 = tested on: SF-268
U-251 = tested on: U-251
COLO 205 = tested on: COLO 205
HOP-92 = tested on: HOP-92
A498 = tested on: A498
HOP-62 = tested on: HOP-62
HCC 2998 = tested on: HCC 2998
SF-539 = tested on: SF-539
OVCAR-5 = tested on: OVCAR-5
A549 = tested on: A549
SR = tested on: SR

Measured: GI50

O=[N+]([O-])c1ccc(/C=N/C23CC4CC(CC(C4)C2)C3)cc1
inactive: OVCAR-3 > 100 µM | NCI-H522 > 100 µM | HCT-116 > 100 µM | NCI-H226 > 100 µM | CAKI-1 > 100 µM | XF498 > 100 µM | SF-268 > 100 µM | U-251 > 100 µM | COLO 205 > 100 µM | HOP-92 > 100 µM | A498 > 100 µM | HOP-62 > 100 µM | HCC 2998 > 100 µM | SF-539 > 100 µM | OVCAR-5 > 100 µM

CN(C)/C=C/C(=O)c1cccc(C(=O)/C=C/N(C)C)n1
inactive: OVCAR-3 > 100 µM | NCI-H522 > 100 µM | HCT-116 > 100 µM | A549 > 100 µM | NCI-H226 > 100 µM | SR > 100 µM | XF498 > 100 µM | SF-268 > 100 µM | U-251 > 100 µM | COLO 205 > 100 µM | HOP-92 > 100 µM | A498 > 100 µM | HOP-62 > 100 µM | HCC 2998 > 100 µM | SF-539 > 100 µM | OVCAR-5 > 100 µM

O=C1c2c(c3c4ccccc4n(CC4CO4)c3c3[nH]c4ccccc4c23)C(=O)N1Cc1ccccc1 (stereo not drawn)
inactive: OVCAR-3 > 100 µM | NCI-H522 25.4 µM | HCT-116 > 100 µM | A549 > 100 µM | NCI-H226 48.6 µM | SR > 100 µM | CAKI-1 > 100 µM | XF498 3.7 µM | SF-268 > 100 µM | U-251 > 100 µM | HOP-92 > 100 µM | A498 31.9 µM | HOP-62 > 100 µM | HCC 2998 > 100 µM | SF-539 37.1 µM | OVCAR-5 > 100 µM

CC1=NN(C(=O)Cc2ccccc2)C(=O)/C1=C\c1ccc([N+](=O)[O-])cc1
inactive: OVCAR-3 > 100 µM | NCI-H522 > 100 µM | HCT-116 > 100 µM | A549 > 100 µM | NCI-H226 > 100 µM | CAKI-1 > 100 µM | XF498 > 100 µM | SF-268 > 100 µM | U-251 > 100 µM | COLO 205 > 100 µM | HOP-92 1.15 µM | A498 > 100 µM | HOP-62 > 100 µM | HCC 2998 > 100 µM | SF-539 > 100 µM | OVCAR-5 > 100 µM

N#CCN1C(=O)c2cc([N+](=O)[O-])cc3cc([N+](=O)[O-])cc(c23)C1=O
inactive: OVCAR-3 13.4 µM | HCT-116 7.18 µM | A549 18.6 µM | NCI-H226 21.6 µM | SR 1.36 µM | CAKI-1 23.9 µM | XF498 12.2 µM | SF-268 17 µM | U-251 17.9 µM | COLO 205 11.4 µM | HOP-92 17.1 µM | A498 35.6 µM | HOP-62 18.8 µM | HCC 2998 15 µM | SF-539 14.6 µM | OVCAR-5 18.9 µM

CCOC(=O)CC(C)C1(C(=O)OCC)CCCCC1=O (stereo not drawn)
inactive: OVCAR-3 > 100 µM | NCI-H522 > 100 µM | HCT-116 46 µM | A549 > 100 µM | NCI-H226 > 100 µM | SR 25.6 µM | CAKI-1 > 100 µM | XF498 > 100 µM | SF-268 > 100 µM | U-251 > 100 µM | COLO 205 86.7 µM | A498 > 100 µM | HOP-62 > 100 µM | HCC 2998 > 100 µM | SF-539 > 100 µM | OVCAR-5 > 100 µM

CN1C(=O)N(c2nc3ccccc3[nH]2)C(C)(C)C1=O
inactive: OVCAR-3 > 100 µM | NCI-H522 > 100 µM | HCT-116 > 100 µM | A549 > 100 µM | NCI-H226 > 100 µM | SR > 100 µM | XF498 > 100 µM | SF-268 > 100 µM | U-251 > 100 µM | COLO 205 > 100 µM | A498 > 100 µM | HOP-62 > 100 µM | SF-539 > 100 µM

CCOC(=O)/C(ON)=C(/CC/C(C(=O)OC)=C(\ON)C(=O)OCC)C(=O)OC
inactive: OVCAR-3 > 100 µM | NCI-H522 > 100 µM | HCT-116 > 100 µM | A549 > 100 µM | NCI-H226 > 100 µM | SR > 100 µM | CAKI-1 > 100 µM | XF498 > 100 µM | SF-268 > 100 µM | U-251 > 100 µM | COLO 205 > 100 µM | HOP-92 > 100 µM | A498 > 100 µM | HOP-62 > 100 µM | HCC 2998 > 100 µM | SF-539 > 100 µM | OVCAR-5 > 100 µM

CCOC(=O)C1=C(C)N(c2ccc(C)cc2)C2=C(C(=O)N(c3ccccc3)C2c2ccccc2)C1c1ccccc1 (stereo not drawn)
inactive: OVCAR-3 > 25 µM | HCT-116 17.6 µM | A549 10.7 µM | NCI-H226 > 25 µM | SR 17.7 µM | XF498 > 25 µM | SF-268 > 25 µM | U-251 > 25 µM | COLO 205 > 25 µM | A498 > 25 µM | HOP-62 > 25 µM | HCC 2998 18.4 µM | SF-539 > 25 µM

ClC/C=C/COC1CCCCO1 (stereo not drawn)
inactive: OVCAR-3 > 100 µM | NCI-H522 2.12 µM | HCT-116 > 100 µM | A549 > 100 µM | NCI-H226 > 100 µM | SR 18.2 µM | CAKI-1 89.9 µM | XF498 25.2 µM | SF-268 63.7 µM | U-251 65.9 µM | COLO 205 94.6 µM | HOP-92 > 100 µM | A498 > 100 µM | HOP-62 > 100 µM | HCC 2998 > 100 µM | SF-539 > 100 µM | OVCAR-5 > 100 µM

O=C1C2C=CC(n3[nH]c(=O)n(Cc4ccccc4)c3=O)CC2C(=O)N1c1cccc(Cl)c1 (stereo not drawn)
inactive: OVCAR-3 > 100 µM | NCI-H522 > 100 µM | HCT-116 > 100 µM | A549 > 100 µM | NCI-H226 > 100 µM | SR > 100 µM | CAKI-1 > 100 µM | XF498 65.9 µM | SF-268 > 100 µM | U-251 > 100 µM | COLO 205 > 100 µM | HOP-92 > 100 µM | A498 > 100 µM | HOP-62 > 100 µM | HCC 2998 > 100 µM | SF-539 > 100 µM | OVCAR-5 > 100 µM

OCc1cc2c(cn1)[nH]c1ccc(NCc3ccccc3)cc12
inactive: OVCAR-3 19.4 µM | NCI-H522 15.7 µM | HCT-116 16.4 µM | A549 28.1 µM | NCI-H226 19.1 µM | CAKI-1 27.4 µM | XF498 25.8 µM | SF-268 20.5 µM | U-251 38.9 µM | COLO 205 17.7 µM | HOP-92 15.9 µM | A498 17.8 µM | HOP-62 51.9 µM | HCC 2998 24.8 µM | SF-539 30.3 µM | OVCAR-5 27.7 µM

COc1ccc(Cc2c3cc(O)c([O-])cc3cc[n+]2C)cc1
inactive: OVCAR-3 27.7 µM | NCI-H522 23.3 µM | HCT-116 19.4 µM | A549 30.8 µM | NCI-H226 25.7 µM | SR 5.86 µM | CAKI-1 8.55 µM | XF498 18.4 µM | SF-268 13.5 µM | U-251 12.7 µM | COLO 205 39.1 µM | HOP-92 47.9 µM | A498 42 µM | HOP-62 10.3 µM | HCC 2998 42.6 µM | SF-539 19.1 µM | OVCAR-5 33.7 µM

COc1ccc(/C=C/c2nnc(S)[nH]2)cc1OC
inactive: OVCAR-3 > 100 µM | HCT-116 > 100 µM | A549 > 100 µM | NCI-H226 > 100 µM | SR > 100 µM | CAKI-1 > 100 µM | XF498 > 100 µM | SF-268 > 100 µM | U-251 > 100 µM | HOP-92 > 100 µM | A498 > 100 µM | HCC 2998 > 100 µM | SF-539 > 100 µM | OVCAR-5 > 100 µM

O=C1C(Cl)C(c2cc(Br)cc(Br)c2O)N1n1cnc2ccccc2c1=O (stereo not drawn)
inactive: OVCAR-3 22.3 µM | NCI-H522 19 µM | HCT-116 18.9 µM | A549 65.9 µM | NCI-H226 21.9 µM | SR 7.76 µM | CAKI-1 17.7 µM | XF498 23.3 µM | SF-268 10.7 µM | U-251 6.35 µM | COLO 205 29.2 µM | HOP-62 24.3 µM | HCC 2998 30.2 µM | OVCAR-5 19.4 µM

N=C1NC(=O)N2CC12 (stereo not drawn) [IMEXON]
inactive: OVCAR-3 > 100 µM | NCI-H522 > 100 µM | A549 > 100 µM | NCI-H226 > 100 µM | SR 51.4 µM | CAKI-1 > 100 µM | XF498 > 100 µM | SF-268 > 100 µM | U-251 > 100 µM | COLO 205 > 100 µM | HOP-92 > 100 µM | A498 > 100 µM | HOP-62 > 100 µM | HCC 2998 > 100 µM | SF-539 > 100 µM

COc1cc(CO)cc2c1[nH]c1ccccc12 [KOENOLINE]
inactive: OVCAR-3 > 25 µM | NCI-H522 24.6 µM | HCT-116 > 25 µM | A549 > 25 µM | NCI-H226 1.73 µM | SR > 25 µM | XF498 > 25 µM | SF-268 > 25 µM | U-251 > 25 µM | COLO 205 > 25 µM | HOP-92 > 25 µM | HOP-62 > 25 µM | HCC 2998 > 25 µM | SF-539 > 25 µM | OVCAR-5 20.8 µM
